Measurements from article PMC9943626, “CS27109, A Selective Thyroid Hormone Receptor-β Agonist Alleviates Metabolic-Associated Fatty Liver Disease in Murine Models” (International Journal of Endocrinology, 2023).
pIC50: −log10 of the molar value.

What was measured:
[1] = PK in the rat; assay type: in vivo, SD rat; settings: 10 mg/kg oral gavage once
[2] = target: T1, hERG (Homo sapiens, UniProt Q12809); assay: hERG test (QPatch HTX); assay type: cell-based
T1 construct: Ice Bioscience Co., Ltd. (Beijing, China)
Method: hERG test was performed by Ice Bioscience Co., Ltd. (Beijing, China) using the QPatch HTX method according to the manufacturer's instruction. 5 doses of CS27109 were tested, including […], each one with a duplicate. The tested values (current) were normalized to the negative control (0.1% DMSO), and IC50 was calculated based on the normalized data.

[3] = tested on: WD + CCL4 model; set-up: method as in earlier work; settings: CCL4 induction started at week 8 (8 weeks in total), drug began 4-week after CCL4 induction; CS27109 alone; ref our another study (manuscript is submitting to another journal); cited from earlier work
[4] = target: T2, THR-α (Homo sapiens, UniProt P10827); assay: Luciferase reporter gene assay, THR-α; assay type: cell-based; settings: CV-1 cells transfected with THR-α, DR4 luciferase reporter, 22 hours
T2 construct: expressed in transfected cells; host or cells: CV-1 cells
T2 sequence (P10827 1-410 isoform P10827-2): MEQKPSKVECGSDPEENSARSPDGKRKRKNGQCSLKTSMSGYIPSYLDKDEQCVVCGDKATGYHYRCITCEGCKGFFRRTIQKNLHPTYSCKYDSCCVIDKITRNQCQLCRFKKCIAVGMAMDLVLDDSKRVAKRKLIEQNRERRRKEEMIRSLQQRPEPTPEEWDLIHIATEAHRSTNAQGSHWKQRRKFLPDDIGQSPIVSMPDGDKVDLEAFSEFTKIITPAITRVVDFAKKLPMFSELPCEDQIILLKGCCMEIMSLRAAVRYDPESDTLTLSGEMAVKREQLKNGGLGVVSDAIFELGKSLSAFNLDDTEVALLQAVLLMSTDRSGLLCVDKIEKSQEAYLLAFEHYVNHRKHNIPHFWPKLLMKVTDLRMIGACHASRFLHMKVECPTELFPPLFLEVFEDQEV
Method: (§1) We applied a luciferase reporter gene assay to assess the capacity of drugs to bind and activate THRα or THRβ. First, we seeded 5 × 10^3 CV-1 cells for each well into 96-well plates and incubated for 24 hours at 37°C and 5% CO2. We then transiently transfected mixed THR-α or THR-β expression plasmids (with DR4) into liposomes with a firefly luciferase reporter (2 : 2 : 1, THRα : DR4 : GFP or 3 : 3 : 1, THRβ : DR4 : GFP) and then mixed with the X-tremeGENE HP DNA Transfection Reagent (Roche, Basel, BS, Switzerland). […] We then removed the medium and added 60 μl of 1x Cell Culture Lysis and 5x reagent (Promega, E153A) to each well. […] Finally, we added 30 μl of Luciferase Assay Buffer (Promega, E151A) to each well to detect Luci values. 50% activation (AC50) for each compound was calculated based on these values.

[5] = target: T3, THR-β (Homo sapiens, UniProt P10828); assay: Luciferase reporter gene assay, THR-β; assay type: cell-based
T3 construct: expressed in transfected cells; host or cells: CV-1 cells
T3 sequence (P10828 1-461): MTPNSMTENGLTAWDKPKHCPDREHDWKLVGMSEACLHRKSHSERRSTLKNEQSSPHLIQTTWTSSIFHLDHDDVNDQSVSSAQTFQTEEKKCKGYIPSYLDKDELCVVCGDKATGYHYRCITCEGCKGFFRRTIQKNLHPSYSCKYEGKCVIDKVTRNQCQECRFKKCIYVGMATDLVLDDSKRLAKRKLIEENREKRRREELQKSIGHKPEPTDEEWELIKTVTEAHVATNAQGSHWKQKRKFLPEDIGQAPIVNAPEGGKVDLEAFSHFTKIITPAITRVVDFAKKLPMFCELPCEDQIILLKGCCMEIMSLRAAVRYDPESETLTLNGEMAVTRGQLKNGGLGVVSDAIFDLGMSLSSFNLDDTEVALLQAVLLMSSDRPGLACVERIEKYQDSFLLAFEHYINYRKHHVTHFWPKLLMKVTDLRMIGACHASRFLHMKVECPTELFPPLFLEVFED
Method: as §1

T1 sequence (Q12809 whole entry): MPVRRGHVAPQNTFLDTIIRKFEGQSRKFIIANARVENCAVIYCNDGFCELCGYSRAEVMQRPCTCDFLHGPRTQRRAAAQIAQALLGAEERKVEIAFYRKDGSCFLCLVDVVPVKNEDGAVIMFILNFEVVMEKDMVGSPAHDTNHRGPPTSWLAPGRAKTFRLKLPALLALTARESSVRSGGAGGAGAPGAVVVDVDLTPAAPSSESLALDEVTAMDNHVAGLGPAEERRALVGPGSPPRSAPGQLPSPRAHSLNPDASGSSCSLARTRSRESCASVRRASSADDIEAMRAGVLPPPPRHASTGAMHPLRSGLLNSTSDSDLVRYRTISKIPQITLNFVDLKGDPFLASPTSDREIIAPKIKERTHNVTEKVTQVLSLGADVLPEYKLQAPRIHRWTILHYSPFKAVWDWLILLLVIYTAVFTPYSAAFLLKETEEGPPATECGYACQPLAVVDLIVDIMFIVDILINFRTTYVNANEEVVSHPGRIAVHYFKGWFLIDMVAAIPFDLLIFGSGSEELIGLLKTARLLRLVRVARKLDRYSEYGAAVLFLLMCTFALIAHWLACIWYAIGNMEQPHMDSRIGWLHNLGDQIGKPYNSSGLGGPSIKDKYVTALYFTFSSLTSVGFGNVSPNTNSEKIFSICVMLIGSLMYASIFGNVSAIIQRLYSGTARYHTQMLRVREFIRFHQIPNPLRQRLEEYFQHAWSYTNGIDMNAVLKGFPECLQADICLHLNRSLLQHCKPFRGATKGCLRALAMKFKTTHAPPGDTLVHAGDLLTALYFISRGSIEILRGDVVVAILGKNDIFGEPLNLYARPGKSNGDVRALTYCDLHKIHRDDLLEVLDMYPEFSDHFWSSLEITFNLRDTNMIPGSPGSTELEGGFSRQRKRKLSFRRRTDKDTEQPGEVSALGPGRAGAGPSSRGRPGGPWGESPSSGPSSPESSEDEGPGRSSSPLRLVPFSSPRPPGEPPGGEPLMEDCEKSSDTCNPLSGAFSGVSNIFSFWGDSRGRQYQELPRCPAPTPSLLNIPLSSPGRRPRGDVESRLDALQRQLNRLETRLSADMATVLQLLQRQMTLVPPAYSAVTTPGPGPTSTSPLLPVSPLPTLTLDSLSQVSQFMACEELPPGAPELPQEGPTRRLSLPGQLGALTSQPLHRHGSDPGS

PK properties in rat (compared with CS27109) [1] | AC50 [4] [µM] | AC50 ([5]; CV-1 cells transfected with THR-β, DR4 luciferase reporter, 22 hours) [µM] | Selectivity (α/β) ([5]; THR-α/THR-β AC50 ratio) | Compound | pIC50 [2] | hERG test result [2] | liver fibrosis [3]
slightly higher PK properties | – | – | – | CC(C)c1cc(Oc2c(Cl)cc(-n3nc(C#N)c(=O)[nH]c3=O)cc2Cl)n[nH]c1=O [MGL3196, 2-[3,5-dichloro-4-(5-isopropyl-6-oxo-1,6-dihydropyridazin-3-yloxy)phenyl]-3,5-dio xo-2,3,4,5-tetrahydro[1,2,4]triazine-6-carbonitrile, reference compound] | – | – | –
– | 25.1 | 1.98 | 12.67 | N#Cc1nn(-c2cc(Br)c(Oc3n[nH]c(=O)c4ccccc34)c(Br)c2)c(=O)[nH]c1=O [CS27109] | < 4.52 | cardiac tolerable | sufficient to reverse liver fibrosis
